pIC50: −log10 of the molar value.
Tested on: 361931-004-R-J1-PDC multicell spheroid viability
Test: Anticancer human tumor 361931-004-R-J1-PDC patient-derived colon adenocarcinoma cell line growth inhibition [PI3K]
Conditions: for pIC50: curve of first compound; for viability, T/C: stronger effect = lower value; active = viability on the fitted dose curve at most 10% of control; inactive = the rest
Method in brief: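 Targeted small molecules plus PI3K inhibitors, half-log dose series from Cmax (default top 10 microM), were applied to heterotypic spheroids of cancer cells with HUVEC and MSCs. Viability indicated growth inhibition.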

[1] = second compound 0.00316 µM, first compound 0.0316 µM
[2] = second compound 0.00316 µM, first compound 0.1 µM
[3] = second compound 0.01 µM, first compound 0.0316 µM
[4] = second compound 0.01 µM, first compound 0.1 µM
[5] = second compound 0.0316 µM, first compound 0.0316 µM
[6] = second compound 0.0316 µM, first compound 0.1 µM
[7] = second compound 0.1 µM, first compound 0.0316 µM
[8] = second compound 0.1 µM, first compound 0.1 µM
[9] = second compound 0.316 µM, first compound 0.0316 µM
[10] = second compound 0.316 µM, first compound 0.1 µM
[11] = second compound 1 µM, first compound 0.0316 µM
[12] = second compound 1 µM, first compound 0.1 µM
[13] = second compound 0.0316 µM, first compound 0.316 µM
[14] = second compound 0.0316 µM, first compound 1 µM
[15] = second compound 0.0316 µM, first compound 3.16 µM
[16] = second compound 0.0316 µM, first compound 10 µM
[17] = second compound 0.1 µM, first compound 0.316 µM
[18] = second compound 0.1 µM, first compound 1 µM
[19] = second compound 0.1 µM, first compound 3.16 µM
[20] = second compound 0.1 µM, first compound 10 µM
[21] = second compound 0.316 µM, first compound 0.316 µM
[22] = second compound 0.316 µM, first compound 1 µM
[23] = second compound 0.316 µM, first compound 3.16 µM
[24] = second compound 0.316 µM, first compound 10 µM
[25] = second compound 1 µM, first compound 0.316 µM
[26] = second compound 1 µM, first compound 1 µM
[27] = second compound 1 µM, first compound 3.16 µM
[28] = second compound 1 µM, first compound 10 µM
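Note: spheroids exposed to agents for seven days before readout.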

CC(C)n1nc(-c2ccc3oc(N)nc3c2)c2c(N)ncnc21 + CC(Nc1ccc2c(c1)OCCn1cc(N3C(=O)OCC3C(F)F)nc1-2)C(N)=O
7.02: pIC50 (second compound 0.1 µM)
< 7.00: pIC50 (second compound 0.00316 µM) | pIC50 (second compound 0.01 µM) | pIC50 (second compound 0.0316 µM) | pIC50 (second compound 0.316 µM)
7.26: pIC50 (second compound 1 µM)
inactive: viability, T/C (second compound 0.00316 µM, first compound 0.000316 µM) 102% | viability, T/C (second compound 0.00316 µM, first compound 0.001 µM) 106% | viability, T/C (second compound 0.00316 µM, first compound 0.00316 µM) 98.2% | viability, T/C (second compound 0.00316 µM, first compound 0.01 µM) 95.6% | viability, T/C [1] 101% | viability, T/C [2] 59.9% | viability, T/C (second compound 0.01 µM, first compound 0.000316 µM) 109% | viability, T/C (second compound 0.01 µM, first compound 0.001 µM) 104% | viability, T/C (second compound 0.01 µM, first compound 0.00316 µM) 97.5% | viability, T/C (second compound 0.01 µM, first compound 0.01 µM) 91.6% | viability, T/C [3] 95.8% | viability, T/C [4] 57.3% | viability, T/C (second compound 0.0316 µM, first compound 0.000316 µM) 102% | viability, T/C (second compound 0.0316 µM, first compound 0.001 µM) 98.7% | viability, T/C (second compound 0.0316 µM, first compound 0.00316 µM) 91.9% | viability, T/C (second compound 0.0316 µM, first compound 0.01 µM) 91.2% | viability, T/C [5] 94.1% | viability, T/C [6] 50.2% | viability, T/C (second compound 0.1 µM, first compound 0.000316 µM) 102% | viability, T/C (second compound 0.1 µM, first compound 0.001 µM) 116% | viability, T/C (second compound 0.1 µM, first compound 0.00316 µM) 100% | viability, T/C (second compound 0.1 µM, first compound 0.01 µM) 91.2% | viability, T/C [7] 87.2% | viability, T/C [8] 47.6% | viability, T/C (second compound 0.316 µM, first compound 0.000316 µM) 84.9% | viability, T/C (second compound 0.316 µM, first compound 0.001 µM) 96.3% | viability, T/C (second compound 0.316 µM, first compound 0.00316 µM) 106% | viability, T/C (second compound 0.316 µM, first compound 0.01 µM) 81.7% | viability, T/C [9] 75.6% | viability, T/C [10] 51.9% | viability, T/C (second compound 1 µM, first compound 0.000316 µM) 89% | viability, T/C (second compound 1 µM, first compound 0.001 µM) 80.6% | viability, T/C (second compound 1 µM, first compound 0.00316 µM) 82.4% | viability, T/C (second compound 1 µM, first compound 0.01 µM) 68.8% | viability, T/C [11] 69.9% | viability, T/C [12] 32.6%

C#Cc1c(F)ccc2cc(O)cc(-c3ncc4c(N5CC6CCC(C5)N6)nc(OCC56CCCN5CC(F)C6)nc4c3F)c12 (stereo unspecified) + COc1c(OCCCN2CCOCC2)ccc2c3n(c(=NC(=O)c4cnc(N)nc4)nc12)CCN3
7.00: pIC50 (second compound 0.316 µM)
inactive: viability, T/C [1] 105% | viability, T/C [2] 108% | viability, T/C (second compound 0.00316 µM, first compound 0.316 µM) 98.1% | viability, T/C (second compound 0.00316 µM, first compound 1 µM) 91.9% | viability, T/C (second compound 0.00316 µM, first compound 3.16 µM) 101% | viability, T/C (second compound 0.00316 µM, first compound 10 µM) 84.9% | viability, T/C [3] 107% | viability, T/C [4] 106% | viability, T/C (second compound 0.01 µM, first compound 0.316 µM) 99.1% | viability, T/C (second compound 0.01 µM, first compound 1 µM) 91% | viability, T/C (second compound 0.01 µM, first compound 3.16 µM) 88.8% | viability, T/C (second compound 0.01 µM, first compound 10 µM) 73% | viability, T/C [5] 91.5% | viability, T/C [6] 96.2% | viability, T/C [13] 85.9% | viability, T/C [14] 72.5% | viability, T/C [15] 67.2% | viability, T/C [16] 51.5% | viability, T/C [7] 80.6% | viability, T/C [8] 69.9% | viability, T/C [17] 68.5% | viability, T/C [18] 61.8% | viability, T/C [19] 54.6% | viability, T/C [20] 45.7% | viability, T/C [9] 54.5% | viability, T/C [10] 51.9% | viability, T/C [21] 42.3% | viability, T/C [22] 37.3% | viability, T/C [23] 33.6% | viability, T/C [24] 23% | viability, T/C [11] 18.4% | viability, T/C [12] 17.6% | viability, T/C [25] 14.9% | viability, T/C [26] 12.1% | viability, T/C [27] 9.63%
< 5.00: pIC50 (second compound 0.00316 µM) | pIC50 (second compound 0.01 µM) | pIC50 (second compound 0.0316 µM)
> 7.50: pIC50 (second compound 1 µM)
5.25: pIC50 (second compound 0.1 µM)
active: viability, T/C [28] 8.02%

CC(C)NCC(C(=O)N1CCN(c2ncnc3c2C(C)CC3O)CC1)c1ccc(Cl)cc1 (stereo unspecified) + CC(Nc1ncnc2nc[nH]c12)c1cc2cccc(Cl)c2c(=O)n1-c1ccccc1
inactive: viability, T/C [5] 99.7% | viability, T/C [6] 97.3% | viability, T/C [13] 99% | viability, T/C [14] 78% | viability, T/C [15] 52.6% | viability, T/C [16] 34.3% | viability, T/C [7] 104% | viability, T/C [8] 99.3% | viability, T/C [17] 99.8% | viability, T/C [18] 81.3% | viability, T/C [19] 50.8% | viability, T/C [20] 31.7% | viability, T/C [9] 101% | viability, T/C [10] 104% | viability, T/C [21] 94% | viability, T/C [22] 79.1% | viability, T/C [23] 47.4% | viability, T/C [24] 29.8% | viability, T/C [11] 106% | viability, T/C [12] 104% | viability, T/C [25] 95% | viability, T/C [26] 86.1% | viability, T/C [27] 54.8% | viability, T/C [28] 31.9% | viability, T/C (second compound 3.16 µM, first compound 0.0316 µM) 105% | viability, T/C (second compound 3.16 µM, first compound 0.1 µM) 107% | viability, T/C (second compound 3.16 µM, first compound 0.316 µM) 98.3% | viability, T/C (second compound 3.16 µM, first compound 1 µM) 79.6% | viability, T/C (second compound 3.16 µM, first compound 3.16 µM) 48.6% | viability, T/C (second compound 3.16 µM, first compound 10 µM) 26.8% | viability, T/C (second compound 10 µM, first compound 0.0316 µM) 106% | viability, T/C (second compound 10 µM, first compound 0.1 µM) 93.9% | viability, T/C (second compound 10 µM, first compound 0.316 µM) 102% | viability, T/C (second compound 10 µM, first compound 1 µM) 76.7% | viability, T/C (second compound 10 µM, first compound 3.16 µM) 51.5% | viability, T/C (second compound 10 µM, first compound 10 µM) 26.7%
5.52: pIC50 (second compound 3.16 µM)
5.45: pIC50 (second compound 0.0316 µM)
5.54: pIC50 (second compound 0.316 µM)
5.50: pIC50 (second compound 10 µM)
5.38: pIC50 (second compound 1 µM)
5.49: pIC50 (second compound 0.1 µM)
